In PMC7694773, “Synthesis, 3D-QSAR, and Molecular Modeling Studies of Triazole Bearing Compounds as a Promising Scaffold for Cyclooxygenase-2 Inhibition” (Pharmaceuticals, 2020):
Several values for one entry are separate records, joined by “and”; a condition that tells them apart may be missing. Equal entries are not always repeated. Where two headings read alike, the source gives them in different places.

Legend:
[1] = molecular target: T1, human recombinant COX-2 (Homo sapiens, UniProt P35354); assay: In vitro COX-2 inhibition, enzyme immunoassay kit (Cayman item no. 560131); type: biochemical
T1 construct: purchased Cayman Chemical 560131
T1 sequence (P35354 18-604): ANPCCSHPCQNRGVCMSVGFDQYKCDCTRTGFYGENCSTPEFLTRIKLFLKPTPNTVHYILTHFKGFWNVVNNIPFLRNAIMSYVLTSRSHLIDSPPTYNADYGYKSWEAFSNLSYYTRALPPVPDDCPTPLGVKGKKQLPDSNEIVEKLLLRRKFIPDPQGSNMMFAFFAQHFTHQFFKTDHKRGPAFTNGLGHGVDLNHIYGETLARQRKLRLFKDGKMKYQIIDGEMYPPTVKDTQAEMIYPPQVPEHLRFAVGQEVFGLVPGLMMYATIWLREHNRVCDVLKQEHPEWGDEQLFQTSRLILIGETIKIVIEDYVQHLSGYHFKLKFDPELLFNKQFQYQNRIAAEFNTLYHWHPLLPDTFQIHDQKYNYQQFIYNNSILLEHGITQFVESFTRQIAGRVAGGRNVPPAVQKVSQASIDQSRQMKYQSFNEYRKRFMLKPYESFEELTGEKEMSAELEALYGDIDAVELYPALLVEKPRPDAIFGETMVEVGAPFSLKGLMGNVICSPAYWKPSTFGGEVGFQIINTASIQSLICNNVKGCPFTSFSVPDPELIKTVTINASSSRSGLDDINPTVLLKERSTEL
Description: (§1) The in vitro COX-1/COX-2 isozyme inhibition studies measure the ability of tested compounds to inhibit bovine COX-1 and human recombinant COX-2 using an enzyme immunoassay (COX inhibitor screening assay kit, item no. 560131) according to the manufacturer’s instructions. […].

[2] = molecular target: T2, bovine COX-1 (Ovis aries, UniProt P05979); assay: In vitro COX-1 inhibition, enzyme immunoassay kit (Cayman item no. 560131); type: biochemical; conditions: mean of two determinations
T2 construct: purchased Cayman Chemical 560131
T2 sequence (P05979 25-600): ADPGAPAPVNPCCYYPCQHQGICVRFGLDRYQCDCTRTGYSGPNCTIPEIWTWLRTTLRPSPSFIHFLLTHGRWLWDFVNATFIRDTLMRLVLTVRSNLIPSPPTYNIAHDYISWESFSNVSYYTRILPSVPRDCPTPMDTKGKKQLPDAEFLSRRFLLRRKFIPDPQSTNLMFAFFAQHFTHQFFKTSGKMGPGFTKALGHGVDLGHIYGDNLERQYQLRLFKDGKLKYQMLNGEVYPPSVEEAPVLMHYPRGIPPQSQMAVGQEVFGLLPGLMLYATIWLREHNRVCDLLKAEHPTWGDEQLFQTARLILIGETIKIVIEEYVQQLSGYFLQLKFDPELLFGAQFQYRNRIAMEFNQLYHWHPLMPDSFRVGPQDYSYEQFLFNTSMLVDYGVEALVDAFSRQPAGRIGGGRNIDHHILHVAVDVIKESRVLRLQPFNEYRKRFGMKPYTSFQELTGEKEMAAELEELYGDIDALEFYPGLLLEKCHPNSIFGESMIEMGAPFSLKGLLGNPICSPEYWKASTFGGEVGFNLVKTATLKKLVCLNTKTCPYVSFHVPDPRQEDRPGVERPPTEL
Description: as §1

[3] = molecular target: T3, egg albumin (Gallus gallus, UniProt P01012); assay: In situ anti-inflammatory assay: inhibition of protein (albumin) denaturation; conditions: for inhibition at 1000 µM / % of inhibition ± SEM at conc. 0.1 / % of inhibition ± SEM at conc. 1 / % of inhibition ± SEM at conc. 10 / % of inhibition ± SEM at conc. 100: protein denaturation, three replicates; for inhibition at 1000 µM: conc. 1000 µM, read-out: % of inhibition ± SEM at conc. 1000; for % of inhibition ± SEM at conc. 0.1: conc. 0.1 (µM); for % of inhibition ± SEM at conc. 1: conc. 1 (µM); for % of inhibition ± SEM at conc. 10: conc. 10 (µM); for % of inhibition ± SEM at conc. 100: conc. 100 (µM)
T3 sequence (P01012 1-386): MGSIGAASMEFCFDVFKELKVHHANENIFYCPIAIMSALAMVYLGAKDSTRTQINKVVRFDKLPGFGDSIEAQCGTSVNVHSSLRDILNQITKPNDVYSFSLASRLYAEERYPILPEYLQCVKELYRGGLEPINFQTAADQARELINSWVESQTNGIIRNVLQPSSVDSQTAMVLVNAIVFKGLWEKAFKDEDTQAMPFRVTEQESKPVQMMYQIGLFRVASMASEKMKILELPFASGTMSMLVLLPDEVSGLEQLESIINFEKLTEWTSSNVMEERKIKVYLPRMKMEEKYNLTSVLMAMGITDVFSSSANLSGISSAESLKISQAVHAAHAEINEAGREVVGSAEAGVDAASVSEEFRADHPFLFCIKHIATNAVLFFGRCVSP
Description: Protein denaturation is used for the evaluation of anti-inflammatory activity. In this methodology, generally, tertiary and secondary protein structures will typically be destroyed by the application of an external molecule or stress. The biological function of most bio-proteins is lost if it is denatured. It is well reported that a basis of inflammation is denaturation of protein.
The reaction mixture is molecules with serial dilutions (1000, 100, 10, 1, 0.1 µM), phosphate buffered saline (PBS; pH 6.4), and egg albumin. The control used was double distilled water (equal volume). […] After attaining ambient temperature, the absorbance of samples was measured spectrophotometrically at 660 nm using vehicle as blank. […] The experiment was performed in triplicate. Percent inhibition of protein denaturation was calculated using the Equation Inhibition (%) of protein denaturation inhibition (%) = (AC − AS)/AC × 100 where AC: absorbance of control, AS: absorbance of sample.

[4] = human recombinant COX-2, mean of two determinations, read-out: IC50 COX-2
[5] = pIC50 = −Log (IC50) of the COX-2 IC50, read-out: Activity (experimental pIC50, COX-2) (converted)

Row | melting point [°C] | COX-2 S.I. (selectivity index, COX-1 IC50/COX-2 IC50) [1] | IC50 [1, 4] [nM] | IC50 [1, 5] | IC50 [2] [nM] | LogIC50 protein denaturation ([3]; GraphPad prism curve fit, IC50 in µM (Figure 3)) | IC50 ([3]; non-linear regression, sigmoidal dose-inhibition fit, GraphPad prism) | inhibition at 1000 µM [3] [%] | % of inhibition ± SEM at conc. 0.1 [3] [%] | % of inhibition ± SEM at conc. 1 [3] [%] | % of inhibition ± SEM at conc. 10 [3] [%] | % of inhibition ± SEM at conc. 100 [3] [%] | SMILES
1 | 184 to 186 | 31.5 | 220 | 220 nM | 6930 | – | – | – | – | – | – | – | Sc1nnc(COc2ccc3ccccc3c2)n1N=Cc1ccccc1 [Compound 9a, 4-(benzylideneamino)-5-((naphthalen-2-yloxy)methyl)-4H-1,2,4-triazole-3-thiol]
2 | 208 to 219 | 40.4 | 190 | 190 nM | 7670 | – | – | – | – | – | – | – | Oc1ccccc1C=Nn1c(S)nnc1COc1ccc2ccccc2c1 [Compound 9b, 2-(((3-mercapto-5-((naphthalen-2-yloxy)methyl)-4H-1,2,4-triazol-4-yl)imino)methyl)phenol]
3 | 200 to 202 | 72.5 | 130 | 130 nM | 9430 | – | – | – | – | – | – | – | O=[N+]([O-])c1cccc(C=Nn2c(S)nnc2COc2ccc3ccccc3c2)c1 [Compound 9c, 5-((naphthalen-2-yloxy)methyl)-4-((3-nitrobenzylidene)amino)-4H-1,2,4-triazole-3-thiol]
4 | 177 to 178 | 53.1 | 150 | 150 nM | 7970 | 0.9126 | 8170 nM and 8180 nM | 51 | 8.97±0.97 | 18.95±1.04 | 31.86±0.96 | 49.08±1.05 | COc1ccc(C=Nn2c(S)nnc2COc2ccc3ccccc3c2)cc1 [Compound 9d, 4-((4-methoxybenzylidene)amino)-5-((naphthalen-2-yloxy)methyl)-4H-1,2,4-triazole-3-thiol]
5 | – | 74.8 | 130 | 130 nM | 9720 | – | – | – | – | – | – | – | O=C(CCl)Sc1nnc(COc2ccc3ccccc3c2)n1N=Cc1ccccc1 [Compound 10a]
6 | – | 70.6 | 140 | 140 nM | 9890 | – | – | – | – | – | – | – | O=C(CCl)Sc1nnc(COc2ccc3ccccc3c2)n1N=Cc1ccccc1O [Compound 10b]
7 | – | 84.3 | 120 | 120 nM | 10100 | – | – | – | – | – | – | – | O=C(CCl)Sc1nnc(COc2ccc3ccccc3c2)n1N=Cc1cccc([N+](=O)[O-])c1 [Compound 10c]
8 | – | 94.1 | 110 | 110 nM | 10300 | – | – | – | – | – | – | – | COc1ccc(C=Nn2c(COc3ccc4ccccc4c3)nnc2SC(=O)CCl)cc1 [Compound 10d]
9 | 162 to 164 | 154.6 | 80 | 80 nM | 12400 | – | – | – | – | – | – | – | Nc1ncc(Sc2nnc(COc3ccc4ccccc4c3)n2N=Cc2ccccc2)o1 [Compound 11a, 5-((4-(benzylideneamino)-5-((naphthalen-2-yloxy)methyl)-4H-1,2,4-triazol-3-yl)thio)oxazol-2-amine]
10 | 80 to 81 | 119.2 | 90 | 89.9 nM | 10700 | – | – | – | – | – | – | – | Nc1ncc(Sc2nnc(COc3ccc4ccccc4c3)n2N=Cc2ccccc2O)o1 [Compound 11b, 2-(((3-((2-aminooxazol-5-yl)thio)-5-((naphthalen-2-yloxy)methyl)-4H-1,2,4-triazol-4-yl)imino)methyl)phenol]
11 | 196 to 198 | 252.6 | 50 | 50 nM and 49 nM | 12600 | – | – | – | – | – | – | – | Nc1ncc(Sc2nnc(COc3ccc4ccccc4c3)n2N=Cc2cccc([N+](=O)[O-])c2)o1 [Compound 11c, 5-((5-((naphthalen-2-yloxy)methyl)-4-((3-nitrobenzylidene)amino)-4H-1,2,4-triazol-3-yl)thio)oxazol-2-amine]
12 | 70 to 71 | 192.2 | 60 | 60.1 nM | 11500 | – | – | – | – | – | – | – | COc1ccc(C=Nn2c(COc3ccc4ccccc4c3)nnc2Sc2cnc(N)o2)cc1 [Compound 11d, 5-((4-((4-methoxybenzylidene)amino)-5-((naphthalen-2-yloxy)methyl)-4H-1,2,4-triazol-3-yl)thio)oxazol-2-amine]
13 | 145 to 146 | 98.3 | 100 | 100 nM | 9830 | – | – | – | – | – | – | – | Nc1ncc(Sc2nnc(COc3ccc4ccccc4c3)n2N=Cc2ccccc2)s1 [Compound 12a, 5-((4-(benzylideneamino)-5-((naphthalen-2-yloxy)methyl)-4H-1,2,4-triazol-3-yl)thio)thiazol-2-amine]
14 | 77 to 78 | 202.0 and 202.2 | 60 | 60.1 nM | 12100 | – | – | – | – | – | – | – | Nc1ncc(Sc2nnc(COc3ccc4ccccc4c3)n2N=Cc2ccccc2O)s1 [Compound 12b, 2-(((3-((2-aminothiazol-5-yl)thio)-5-((naphthalen-2-yloxy)methyl)-4H-1,2,4-triazol-4-yl)imino)methyl)phenol]
15 | 182 to 184 | 325.0 and 311.8 | 40 | 40.1 nM | 12500 | – | – | – | – | – | – | – | Nc1ncc(Sc2nnc(COc3ccc4ccccc4c3)n2N=Cc2cccc([N+](=O)[O-])c2)s1 [Compound 12c, 5-((5-((naphthalen-2-yloxy)methyl)-4-((3-nitrobenzylidene)amino)-4H-1,2,4-triazol-3-yl)thio)thiazol-2-amine]
16 | – | – | – | – | – | – | – | 94.2 | 32.14±1.01 | 61.45±1.21 | 67.32±0.95 | 82.43±1.87 | O=C(O)Cc1ccccc1Nc1c(Cl)cccc1Cl [Diclofenac sodium, reference compound]
